Read-outs that look alike come from different tables or passages of the source.
Tests used:
[1] = test system: irritable bowel syndrome (IBS) caused by bacterial CGC; test: Test Example 5: preventing irritable bowel syndrome (IBS) caused by bacterial CGC; assay type: in vivo, rats; conditions: for CGCs in the rat stools after one week of drug withdrawal / CGCs in the stools of the rats: rats, effective dosage for consecutive 10 days, 30 rats per group; for CGCs in the stools of the rats: stools observed during administration and within 1 week after drug withdrawal
Description: On this basis, the rats were subjected to stimulations such as electric stimulation, intragastric administration with fructus zanthoxyli water, cold, constraint etc. in order to induce IBS, and the incidence rates of IBS of two groups were observed.

[2] = test system: rats infected and not infected by Bacillus typhi murium; assay type: in vivo, Wistar rats; conditions: rats infected or not by Bacillus typhi murium, consecutive week, 15 rats per group
[3] = test system: Klebsiella; test: Test Example 2: preventing formation of bacterial CGC in vitro (K-B method); assay type: cell-based
Protocol: (§1) E. coli (No. 33310, purchased from Chengdu Institute of Biological Products, the Ministry of Public Health) was used in the tests. Grid design was performed by using antibiotic with different concentrations and N-acetyl-D-glucosamine having an amount of from 10 mg to 300 mg. Streak plates were conducted separately, and K-B method was employed for drugs. Colonies at marginal part of drug inhibition zone were picked and were observed under microscope. If cell length was more than 50 μm and cell number was more than 5 in each visual field, it was deemed as CGC positive and was marked with “+”; while if cell length was not greater than 50 μm and cell number was within the range from 0 to 4 in each visual field, it was deemed as CGC negative and was marked with “−”. At this time, the ratio of two substances was called “effective ratio”.
(§2) Effects tests of compound preparation comprising N-acetyl-D-glucosamine and antibiotics for preventing the formation of bacterial CGC in vitro.
(§3) The tests were carried out in vitro, wherein gram-negative amphimicrodes, gram-negative anaerobes and gram-positive aerobes were separately coated on streak plates, test drugs and control drugs were separately dissolved with same volume of sterile water for injection, 10 μl of each drug was used for preparing drug-sensitive paper, K-B method was employed in the tests of drugs, and the inhibition situations of CGC formation were observed.

[4] = test system: Bacillus cereus; test: as above; assay type: cell-based
Protocol: as §1, §2, §3

[5] = test system: Listeria; test: as above; assay type: cell-based
Protocol: as §1, §2, §3

[6] = test system: Bacillus proteus; test: as above; assay type: cell-based
Protocol: as §1, §2, §3

[7] = test system: Nucleic Acid Bacter; test: as above; assay type: cell-based
Protocol: as §1, §2, §3

[8] = test system: Diphtheroid bacillus; test: as above; assay type: cell-based
Protocol: as §1, §2, §3

[9] = test system: Citro Bacter; test: as above; assay type: cell-based
Protocol: as §1, §2, §3

[10] = test system: E. coli; test: as above; assay type: cell-based
Protocol: as §1, §2, §3

[11] = test system: Bacteroides fragilis; test: as above; assay type: cell-based
Protocol: as §1, §2, §3

[12] = first of three values given respectively: electric stimulation
[13] = second of three values given respectively: intragastric administration with fructus zanthoxyli water
[14] = third of three values given respectively: cold, constraint etc.
[15] = compound preparation 100 mg N-acetyl-D-glucosamine + 900 mg spiramycin, control 900 mg spiramycin
[16] = compound preparation 100 mg N-acetyl-D-glucosamine + 1500 mg ampicillin-sulbactam, control drug was ampicillin-sulbactam
[17] = compound preparation N-acetyl-D-glucosamine (50 mg) and tetracycline (150 mg), control tetracycline (150 mg)
[18] = compound preparation 100 mg N-acetyl-D-glucosamine + 400 mg norfloxacin, control norfloxacin same dose

Which “incidence rate of IBS” value [1, 12] does the source give for spiramycin here?
The value was 33%.

And the “CGCs in the rat stools after one week of drug withdrawal” value [1]?
The value was “still present”.

What about the “CGCs in the stools of the rats” value [1] of the same compound?
Its value is “a large amount of CGCs appeared”.

What about the “incidence rate of IBS” value [1, 13] of the same compound?
The value was 33%.

What about the “incidence rate of IBS” value [1, 14] of the same compound?
Its value is 33%.

What about the “positive rates of stool CGC and intestinal mucosa CGC” value (“positive rates” for short) ([2]; N-acetyl-D-glucosamine (100 mg)+spiramycin (900 mg) vs only spiramycin) of the same compound?
Its value is 100%.

And the CGC formation [3, 15]?
Its CGC formation is “+ (If cell length was more than 50 μm and cell number was more than 5 in each visual field, it was deemed as CGC positive and was marked with “+”)”.

And the CGC formation [3, 16]?
Its CGC formation is “+ (If cell length was more than 50 μm and cell number was more than 5 in each visual field, it was deemed as CGC positive and was marked with “+”)”.

And the CGC formation [4, 15]?
The CGC formation was “+ (If cell length was more than 50 μm and cell number was more than 5 in each visual field, it was deemed as CGC positive and was marked with “+”)”.

What about the CGC formation [4, 16] of the same compound?
The CGC formation was “+ (If cell length was more than 50 μm and cell number was more than 5 in each visual field, it was deemed as CGC positive and was marked with “+”)”.

What about the CGC formation [5, 15] of the same compound?
The CGC formation was “+ (If cell length was more than 50 μm and cell number was more than 5 in each visual field, it was deemed as CGC positive and was marked with “+”)”.

What about the CGC formation [5, 16] of the same compound?
Its CGC formation is “+ (If cell length was more than 50 μm and cell number was more than 5 in each visual field, it was deemed as CGC positive and was marked with “+”)”.

What about the CGC formation [6, 15] of the same compound?
Its CGC formation is “+ (If cell length was more than 50 μm and cell number was more than 5 in each visual field, it was deemed as CGC positive and was marked with “+”)”.

And the CGC formation [6, 16]?
Its CGC formation is “+ (If cell length was more than 50 μm and cell number was more than 5 in each visual field, it was deemed as CGC positive and was marked with “+”)”.

What about the CGC formation [7, 15] of the same compound?
The CGC formation was “+ (If cell length was more than 50 μm and cell number was more than 5 in each visual field, it was deemed as CGC positive and was marked with “+”)”.

And the CGC formation [7, 16]?
The CGC formation was “+ (If cell length was more than 50 μm and cell number was more than 5 in each visual field, it was deemed as CGC positive and was marked with “+”)”.

What about the CGC formation [8, 15] of the same compound?
Its CGC formation is “+ (If cell length was more than 50 μm and cell number was more than 5 in each visual field, it was deemed as CGC positive and was marked with “+”)”.

And the CGC formation [8, 16]?
The CGC formation was “+ (If cell length was more than 50 μm and cell number was more than 5 in each visual field, it was deemed as CGC positive and was marked with “+”)”.

And the CGC formation [9, 15]?
Its CGC formation is “+ (If cell length was more than 50 μm and cell number was more than 5 in each visual field, it was deemed as CGC positive and was marked with “+”)”.

What about the CGC formation [9, 16] of the same compound?
The CGC formation was “+ (If cell length was more than 50 μm and cell number was more than 5 in each visual field, it was deemed as CGC positive and was marked with “+”)”.

And the CGC formation [10, 15]?
The CGC formation was “+ (If cell length was more than 50 μm and cell number was more than 5 in each visual field, it was deemed as CGC positive and was marked with “+”)”.

And the CGC formation [10, 16]?
The CGC formation was “+ (If cell length was more than 50 μm and cell number was more than 5 in each visual field, it was deemed as CGC positive and was marked with “+”)”.

What about the CGC formation [11, 15] of the same compound?
Its CGC formation is “+ (If cell length was more than 50 μm and cell number was more than 5 in each visual field, it was deemed as CGC positive and was marked with “+”)”.

And the CGC formation [11, 16]?
The CGC formation was “+ (If cell length was more than 50 μm and cell number was more than 5 in each visual field, it was deemed as CGC positive and was marked with “+”)”.

Which results are given for `CN(C)C1C(O)=C(C(N)=O)C(=O)C2(O)C(O)=C3C(=O)c4c(O)cccc4C(C)(O)C3CC12` (stereo not shown) [Tetracyclin, tetracycline]?
incidence rate of IBS [1, 12]: 33%; CGCs in the rat stools after one week of drug withdrawal [1]: still present; CGCs in the stools of the rats [1]: a large amount of CGCs appeared; incidence rate of IBS [1, 13]: 33%; incidence rate of IBS [1, 14]: 33%; positive rates of stool CGC and intestinal mucosa CGC ([2]; N-acetyl-D-glucosamine (150 mg)+tetracycline (150 mg) vs only tetracycline): 100%; CGC formation [3, 17]: + (If cell length was more than 50 μm and cell number was more than 5 in each visual field, it was deemed as CGC positive and was marked with “+”); CGC formation [4, 17]: + (If cell length was more than 50 μm and cell number was more than 5 in each visual field, it was deemed as CGC positive and was marked with “+”); CGC formation [5, 17]: + (If cell length was more than 50 μm and cell number was more than 5 in each visual field, it was deemed as CGC positive and was marked with “+”); CGC formation [6, 17]: + (If cell length was more than 50 μm and cell number was more than 5 in each visual field, it was deemed as CGC positive and was marked with “+”); CGC formation [7, 17]: + (If cell length was more than 50 μm and cell number was more than 5 in each visual field, it was deemed as CGC positive and was marked with “+”); CGC formation [8, 17]: + (If cell length was more than 50 μm and cell number was more than 5 in each visual field, it was deemed as CGC positive and was marked with “+”); CGC formation [9, 17]: + (If cell length was more than 50 μm and cell number was more than 5 in each visual field, it was deemed as CGC positive and was marked with “+”); CGC formation [10, 17]: + (If cell length was more than 50 μm and cell number was more than 5 in each visual field, it was deemed as CGC positive and was marked with “+”); CGC formation [11, 17]: + (If cell length was more than 50 μm and cell number was more than 5 in each visual field, it was deemed as CGC positive and was marked with “+”)

For `CO[C@@]1(NC(=O)Cc2cccs2)C(=O)N2C(C(=O)O)=C(COC(N)=O)CS[C@@H]21` [cefoxitin], which “incidence rate of IBS” value [1, 12] is on record?
Its value is 33%.

What about the “CGCs in the rat stools after one week of drug withdrawal” value [1] of the same compound?
The value was “still present”.

What about the “CGCs in the stools of the rats” value [1] of the same compound?
The value was “a large amount of CGCs appeared”.

What about the “incidence rate of IBS” value [1, 13] of the same compound?
Its value is 33%.

What about the “incidence rate of IBS” value [1, 14] of the same compound?
The value was 33%.

And the “positive rates” value ([2]; N-acetyl-D-glucosamine (100 mg)+cefoxitin (150 mg) vs only cefoxitin)?
The value was 100%.

`CCn1cc(C(=O)O)c(=O)c2cc(F)c(N3CCNCC3)cc21` [Norfloxacin, norfloxacin] was tested. Which CGC formation [3, 18] did it give?
Its CGC formation is “+ (If cell length was more than 50 μm and cell number was more than 5 in each visual field, it was deemed as CGC positive and was marked with “+”)”.

And the CGC formation [4, 18]?
Its CGC formation is “+ (If cell length was more than 50 μm and cell number was more than 5 in each visual field, it was deemed as CGC positive and was marked with “+”)”.

What about the CGC formation [5, 18] of the same compound?
The CGC formation was “+ (If cell length was more than 50 μm and cell number was more than 5 in each visual field, it was deemed as CGC positive and was marked with “+”)”.

And the CGC formation [6, 18]?
Its CGC formation is “+ (If cell length was more than 50 μm and cell number was more than 5 in each visual field, it was deemed as CGC positive and was marked with “+”)”.

What about the CGC formation [7, 18] of the same compound?
Its CGC formation is “+ (If cell length was more than 50 μm and cell number was more than 5 in each visual field, it was deemed as CGC positive and was marked with “+”)”.

And the CGC formation [8, 18]?
The CGC formation was “+ (If cell length was more than 50 μm and cell number was more than 5 in each visual field, it was deemed as CGC positive and was marked with “+”)”.

What about the CGC formation [9, 18] of the same compound?
Its CGC formation is “+ (If cell length was more than 50 μm and cell number was more than 5 in each visual field, it was deemed as CGC positive and was marked with “+”)”.

What about the CGC formation [10, 18] of the same compound?
The CGC formation was “+ (If cell length was more than 50 μm and cell number was more than 5 in each visual field, it was deemed as CGC positive and was marked with “+”)”.

What about the CGC formation [11, 18] of the same compound?
Its CGC formation is “+ (If cell length was more than 50 μm and cell number was more than 5 in each visual field, it was deemed as CGC positive and was marked with “+”)”.

`O=C(O)c1cn(C2CC2)c2cc(N3CCNCC3)c(F)cc2c1=O` [ciprofloxacin] was tested. Which “positive rates” value ([2]; N-acetyl-D-glucosamine (100 mg)+ciprofloxacin (500 mg) vs only ciprofloxacin) did it give?
Its value is 100%.

Source: US20070191291A1, “Compound antibacterial drugs comprising n-acetyl-d-glucosamine” (priority 2003, published 2007)
